Results reported in the NIST ThermoML archive (doi:10.1021/je030136n).

Conditions: Liquid, Pulse-echo method

CCCCCCC [heptane]
Conditions	speed of sound [m/s]
293.1 K, 111450 kPa	1674.3
293.15 K, 100 kPa	1151.7
293.16 K, 121580 kPa	1707.1
293.18 K, 30400 kPa	1341.5
293.19 K, 45590 kPa	1416.6
293.2 K, 15200 kPa	1256.3
293.2 K, 60790 kPa	1484.5
293.2 K, 75990 kPa	1546.5
293.2 K, 91190 kPa	1603.7
293.2 K, 101320 kPa	1639.7
298.11 K, 75990 kPa	1531.6
298.13 K, 111450 kPa	1660.5
298.14 K, 121580 kPa	1692.4
298.15 K, 91190 kPa	1589.4
298.16 K, 100 kPa	1129.9
298.16 K, 101320 kPa	1625.7
298.16 K, 111450 kPa	1660.4
298.18 K, 45590 kPa	1400.1
298.19 K, 60790 kPa	1468.7
303.06 K, 100 kPa	1108.9
303.07 K, 45590 kPa	1384.4
303.1 K, 101320 kPa	1612.6
303.1 K, 121580 kPa	1681.2
303.13 K, 30400 kPa	1307
303.15 K, 111450 kPa	1647.6
303.17 K, 15200 kPa	1218.6
303.17 K, 75990 kPa	1517.2
303.18 K, 60790 kPa	1453.7
303.18 K, 91190 kPa	1575.7
308.07 K, 30400 kPa	1290.3
308.07 K, 45590 kPa	1368.7
308.08 K, 100 kPa	1087.4
308.08 K, 15200 kPa	1200.4
308.11 K, 91190 kPa	1562.4
308.12 K, 60790 kPa	1439
308.12 K, 75990 kPa	1503.2
308.17 K, 121580 kPa	1668.6
308.21 K, 111450 kPa	1634.6
308.24 K, 101320 kPa	1599.1
313.1 K, 100 kPa	1066.1
313.1 K, 15200 kPa	1182
313.1 K, 75990 kPa	1489.2
313.12 K, 30400 kPa	1273.3
313.12 K, 45590 kPa	1353
313.12 K, 60790 kPa	1424.3
313.13 K, 91190 kPa	1549
313.13 K, 121580 kPa	1656.4
313.2 K, 111450 kPa	1622
313.21 K, 101320 kPa	1586.2
318.09 K, 75990 kPa	1475.5
318.15 K, 91190 kPa	1535.7
318.17 K, 45590 kPa	1337.4
318.17 K, 60790 kPa	1409.6
318.17 K, 121580 kPa	1644.3
318.18 K, 100 kPa	1044.5
318.18 K, 15200 kPa	1163.4
318.18 K, 30400 kPa	1256.5
318.18 K, 101320 kPa	1573.6
318.18 K, 111450 kPa	1609.8
